# Data as given in US20230119324A1, “EGFR INHIBITION TRIGGERS AN ADAPTIVE RESPONSE BY CO-OPTING ANTIVIRAL SIGNALING PATHWAYS IN LUNG CANCER” (The United States Government as represented by the …, priority 2020, published 2023).
# B1: Anifrolumab: monoclonal antibody directed against IFNAR that inhibits the binding of Type I IFNs to its receptor (antibody, chains of the INN, looked up)
# heavy: EVQLVQSGAEVKKPGESLKISCKGSGYIFTNYWIAWVRQMPGKGLESMGIIYPGDSDIRYSPSFQGQVTISADKSITTAYLQWSSLKASDTAMYYCARHDIEGFDYWGRGTLVTVSSASTKGPSVFPLAPSSKSTSGGTAALGCLVKDYFPEPVTVSWNSGALTSGVHTFPAVLQSSGLYSLSSVVTVPSSSLGTQTYICNVNHKPSNTKVDKRVEPKSCDKTHTCPPCPAPEFEGGPSVFLFPPKPKDTLMISRTPEVTCVVVDVSHEDPEVKFNWYVDGVEVHNAKTKPREEQYNSTYRVVSVLTVLHQDWLNGKEYKCKVSNKALPASIEKTISKAKGQPREPQVYTLPPSREEMTKNQVSLTCLVKGFYPSDIAVEWESNGQPENNYKTTPPVLDSDGSFFLYSKLTVDKSRWQQGNVFSCSVMHEALHNHYTQKSLSLSPG
# light: EIVLTQSPGTLSLSPGERATLSCRASQSVSSSFFAWYQQKPGQAPRLLIYGASSRATGIPDRLSGSGSGTDFTLTITRLEPEDFAVYYCQQYDSSAITFGQGTRLEIKRTVAAPSVFIFPPSDEQLKSGTASVVCLLNNFYPREAKVQWKVDNALQSGNSQESVTEQDSKDSTYSLSSTLTLSKADYEKHKVYACEVTHQGLSSPVTKSFNRGEC
# B2: IFNα: Recombinant human IFNα1, exogenous Type I interferon (protein, UniProt P01562 24-189, looked up)
# Interferon alpha-1/13: CDLPETHSLDNRRTLMLLAQMSRISPSSCLMDRHDFGFPQEEFDGNQFQKAPAISVLHELIQQIFNLFTTKDSSAAWDEDLLDKFCTELYQQLNDLEACVMQEERVGETPLMNADSILAVKKYFRRITLYLTEKKYSPCAWEVVRAEIMRSLSLSTNLQERLRRKE
# Key:
# [1] = system: Type I interferons (IFNα1, IFNβ1); assay: qPCR and ELISA for Type I interferons in NSCLC cell lines; assay type: cell-based, human; conditions: BX795 1 µM, BMS-345541 0.1 µM
# Method: Total RNA was isolated by TRIzol Reagent (Fisher Scientific). cDNA Reverse Transcription was performed by using High-Capacity cDNA Reverse Transcription Kit (Applied Biosystems). PCR primers were synthesized by IDT (Coralville, IA). Each PCR reaction was carried out in triplicate in a 20 µl volume using SYBR Green Master Mix (Applied Biosystems) for 15 minutes at 95° C. for initial denaturing, followed by 40 cycles of 95° C. for 15 s and 60° C. for 60 s in ViiA 7 Real-Time PCR System (Applied Biosystems). At least three independent experiments were done. Values for each gene were normalized to expression levels of ACTB (β-Actin) mRNA. Primer sequences were as follows.
# To detect IFNα and IFNβ levels in medium, cells were cultured in serum free medium and treated with indicated drugs for 48 hours. Supernatant was then collected and concentrated using a Pierce protein concentrator (Thermo-Fisher). To test IFNα and IFNβ in lysates, cell and tumor lysates were extracted using RIPA buffer. Total protein concentrations were determined by Pierce BCA Protein Assay Kit (Fisher Scientific). Then, the levels of IFNα and IFNβ protein were measured by ELISA using human IFNα ELISA kit (41100) and human IFNβ ELISA kit (41440), from PBL Assay Science (Piscataway, NJ) according to the manufacturer’s protocol.
# ATCB (β-Actin) expression was the loading control.
# IFNα1 and IFNβ1 mRNA levels were detected by qPCR with β-Actin as the loading control.
# IFNα1 and IFNβ1 mRNA levels were detected by qPCR. β-Actin was used as the loading control. Data refers to mean ± S.E.M, n=3 independent repeated experiments. One-way ANOVA with Dunnett’s test was used to determine adjusted p value for comparison between untreated and each treated sample. *: p<0.05, **: p<0.01, ***: p<0.001. H1666 is reported to harbor IFNA1 homodeletion in COSMIC (Catalogue Of Somatic Mutations In Cancer)-v90 http://cancer.sanger.ac.uk/cosmic (Updated 5 Sep. 2019), also in Data from a CPRIT (Cancer Prevention & Research Institute of Texas)-funded NGS (next generation sequencing) project by Dr. John Minna, UT Southwestern Medical Center, and Data from Dr. Adi Gazdar, UT Southwestern Medical Center. All other cell lines used in this research were searched on those databases above and confirmed to harbor neither IFNA1 nor IFNB1 homodeletion. Western blots are representative of 3 independent experiments with similar results. Cropped images are shown. Uncropped Western blot images are shown in Source Data.
# The protein concentration of IFNα1 and IFNβ1 in cell lysates were measured by ELISA. […]
# IFNA1 andIFNB1 mRNA levels were tested by qPCR. IκBα-DN overexpression was detected by Western blot. […]
# Referring to FIGS. 14T-U, H1975 cells were treated with 0.1 µM Afatinib for indicated time points, IFNA1 and IFNB1 mRNA levels were detected by qPCR.
# NF-κB = NF-κB luciferase reporter assay, TNF stimulation; assay type: cell-based; conditions: EGFR mutant lines; 10 µg/mL Etanercept 1 h, then 10 ng/mL TNF 24 h
# Method: (§1) Cells were plated in 48 well dishes followed by plasmid transfection with two reporters detecting activation of IRF3, ISRE-luciferase reporter or IFI27-ISRE luciferase reporter^22, using lipofectamine 2000. A dual-luciferase reporter assay system was used according to the instructions of the manufacturer (Promega, Madison WI). Firefly luciferase activity was measured in the POLARstar Omega Microplate Reader (BMG LABTECH) and normalized based on Renilla luciferase activity. Three independent experiments were done in triplicate.
# Referring to FIG. 16G and FIG. 16H, EGFR mutant lines were transfected with an NF-κB reporter for 48 h, followed by 10 µg/mL Etanercept for 1 h and then 10 ng/mL TNF for 24 h, followed by a luciferase assay or Western blot.
# [2] = system: EGFR mutant NSCLC cell lines; assay: AlamarBlue cell viability assay, EGFR mutant NSCLC cell lines; assay type: cell-based; conditions: for effect on pro-survival effect of exogenous Type I IFNs under EGFR inhibition: EGFR mutant lines, 50 ng/mL IFNα1 or IFNβ1, 72 h, Etanercept 50 µg/mL, BMS-345541 0.1 µM
# Method: (§2) Cell viability assays were conducted with AlamarBlue Cell Viability Reagent from ThermoFisher (Waltham, MA), following the manufacturer’s protocol. Cells were cultured in Coming (Corning, NY) 96-well black plates with clear bottom and detected by the POLARstar Omega Microplate Reader (BMG LABTECH) (excitation at 544 nm and emission at 590 nm). At least 3 independent experiments were done.
# TBK1 and IRF3 = assay: Western blot for TBK1 and IRF3 activation in NSCLC cell lines; assay type: cell-based; conditions: EGFR mutant cells; 0.1 µM erlotinib and 1 µM BX795, 24 hours
# Method: (§3) Western blot and immunoprecipitation were performed according to standard protocols. Western blot results are representative of at least 3 independent experiments. EGFR (06-847) antibody was from EMD Millipore (Billerica, MA); p-EGFR (Tyr1068) (2236), p-TBK1 (Ser172) (5483), TBK1 (3504), IKKε (2905), IRF3 (11904), K63-Ub (12930), RIG-I (3743), STAT1 (9172), p-STAT1 (Tyr701) (9167), AhR (83200), LAMIN A/C (4777), STING (3337), p-STING (Ser366) (19781), PD1 (86163), PD-L1 (13684), PD-L2 (82723) and IκBα (4814) antibodies were from Cell Signaling Technology (Danvers, MA); IFNAR1 (sc-7391), IFNGR1 (sc-12755), TNFR1 (sc-8346), and β-Actin (sc-47778) were from Santa Cruz Biotechnology (Dallas, TX); TRIM32 (Mab6515) antibody was from R&D (Minneapolis, MN); p-IRF3 (Ser386) (ab76493) antibody was from Abcam (Cambridge, MA).
# IRF3 = assay: ISRE / IFI27-ISRE luciferase reporter assay; assay type: cell-based; conditions: EGFR mutant cells; erlotinib 0.1 µM and 1 µM BX795, 24 h
# Method: as §1
# H1975 cells = assay: AlamarBlue assay in H1975 cells; assay type: cell-based; conditions: 10 µg/mL Anifrolumab with 0.1 µM Afatinib, 72 hours
# Method: as §2
# (§4) IFNAR1 siRNA was confirmed by Western blot.
# [3] = system: HCC827 derived ER3, ER4A, ER4B, ER5; assay: AlamarBlue assay in HCC827-derived erlotinib-resistant lines; assay type: cell-based; conditions: 10 µg/mL Anifrolumab with erlotinib, 72 hours
# Method: as §2, §4
# PD-L1 = assay: Western blot for PD-L1 in NSCLC cell lines; assay type: cell-based; conditions: HCC827 and H3255; 100 or 10 nM erlotinib 24 h, 10 µg/mL Anifrolumab
# Method: as §3
# PD-1, PD-L1, and PD-L2 expression was detected by Western blot. PD-L1 expression levels were partly shown above. Signalstrength was represented by symbols. -: undetected, +: weak, ++: expressed, +++: strong signals. Western blot and Immunofluorescent staining images are representative of 3 independent experiments with similar results. Cropped images are shown. Uncropped Western blot images are shown in Source Data.
# EGFRwt NSCLC cell lines = assay: AlamarBlue cell viability assay, EGFRwt NSCLC cell lines; assay type: cell-based; conditions: 72 h
# Method: as §2
# Western blot confirming the silencing of IFNAR1.
# Data represents mean ± S.E.M. of three independent repeated experiments. *: p<0.05, **: p<0.01, ***: p<0.001, by two-way ANOVA adjusted by Bonferroni’s correction. Western blots are representative of 3 independent experiments with similar results. Cropped images are shown. Uncropped Western blot images are shown in Source Data.
# STAT1 = assay: Western blot for total and phosphorylated STAT1; assay type: cell-based; conditions: 0.1 or 1 µM erlotinib with 10 µg/mL Anifrolumab
# Method: as §3
# Cell lysates were collected and subjected to Western blot for detection of total and phosphorylated STAT1 expression. β-Actin was the loading control.
# [4] = EGFR mutant cell lines, 0.1 µM erlotinib 24 h, Etanercept 10 µg/mL
molecule,measurement,setting,value
Etanercept,effect on erlotinib-induced upregulation of IFN,[1]; [4],failed to inhibit erlotinib induced upregulation of type I IFNs
same,effect on TNF-induced activation of NF-κB,NF-κB,efficiently blocked TNF-induced activation of NF-κB
same,effect on pro-survival effect of exogenous Type I IFNs under EGFR inhibition,[2]; 0.1 µM erlotinib,fails to block the pro-survival effects of IFNs
Cc1ccc2nc(NCCN)c3ncc(C)n3c2c1 [BMS-345541],effect on erlotinib-induced upregulation of IFN,"[1]; EGFRwt cell lines, 1 µM erlotinib 24 h",blocks EGFR inhibition-induced upregulation of IFN
same,effect on pro-survival effect of exogenous Type I IFNs under EGFR inhibition,[2]; 0.1 µM erlotinib,fail to abrogate the protective effect of type I IFNs
O=C(NCCCNc1nc(Nc2cccc(NC(=O)N3CCCC3)c2)ncc1I)c1cccs1 [BX-795],effect on erlotinib-induced upregulation of IFN,[1]; [4],completely suppressed erlotinib-induced upregulation of IFN
same,combination with EGFR inhibition in cell viability assays,"[2]; four EGFR mutant cell lines, 0.01 µM erlotinib and 1 µM BX795, 72 hours",synergized with EGFR inhibition
same,effect on EGFR inhibition-induced IRF3 phosphorylation,TBK1 and IRF3,loss of EGFR inhibition-induced IRF3 phosphorylation
same,effect on erlotinib-induced IRF3 transcriptional activity,IRF3,loss of erlotinib-induced IRF3 transcriptional activity
B1,sensitivity to afatinib,H1975 cells,rendered sensitive to afatinib
same,sensitivity to erlotinib in secondary resistant lines,[3],restore sensitivity to erlotinib
same,effect on erlotinib-induced upregulation of PD-L1,PD-L1,abrogated
same,sensitivity to erlotinib (cell viability),"EGFRwt NSCLC cell lines; EGFRwt lines with Ros1 mutation, EML4/ALK fusion, Met amplification, Braf mutation, 10 µg/mL Anifrolumab",resulted in sensitivity to erlotinib
same,sensitivity to erlotinib (cell viability),"EGFRwt NSCLC cell lines; resistant EGFRwt/KRas cell lines, 1 µM erlotinib with 10 µg/mL Anifrolumab",enhanced sensitivity to erlotinib
same,effect on erlotinib induced activation of STAT1,STAT1,blocks erlotinib induced activation of STAT1
B2,protection from erlotinib-induced cell death,"[2]; EGFR mutant cell lines, 0.1 µM erlotinib, IFNα1 or IFNβ1 50 ng/mL, 72 h",protects NSCLC cells with mutant EGFR activating from cell death
